Experimental data as given in US9815842B2, “Pyrazolo pyrimidine derivatives and their use as MALT1 inhibitors” (Novartis AG, priority 2014, dated 2017).

Key:
[1] = target: cIAP2-MALT1 fusion protein (Homo sapiens, UniProt Q9UDY8); assay: cell-based
Experimental: For the measurement of compound inhibition, 0.25 μl of test compound were mixed with 12.5 μl of enzyme in wells of the 384-well plates, and incubated for 60 minutes at room temperature (22° C.). After that, 12.5 μl of substrate was added, and the enzymatic reaction was allowed to proceed for 60 minutes at room temperature (22° C.). […] The DMSO content was between 0.9 and 1% (v/v). […] The IC50 value was calculated from the plot of percentage inhibition versus inhibitor concentration using non-linear regression analysis software (Origin, OriginLab Corporation, USA). The data were fitted using a 4 Parameter Logistic Model, characterized by the following equation: y=A2+(A1−A2)/(1+(x/IC50)^p) where y is the %-inhibition at the inhibitor concentration, x. A1 is the lowest inhibition value, and A2 the maximum inhibition value.

[2] = target: C-domain of MALT1 (amino acids 329-824) (Homo sapiens (Human), UniProt Q9UDY8); assay: MALT1 biochemical assay (fluorescence lifetime enzyme activity assay); conditions: 60 min pre-incubation, 2.5 nM enzyme, 1 μM peptide substrate
Experimental: The readout parameter is the increase of fluorescence lifetime over time, proportional to enzyme activity.
The assay employs a short peptide substrate labeled with the single fluorophore PT14 as a fluorescence lifetime probe sensitive to the cleavage state of the substrate (PT14: 6-(9-oxo-9H-acridin-10-yl)-hexanoate, AssayMetrics, UK). […] The assay buffer consists of 200 mM Tris/HCl at pH 7.5, 0.8 M Na citrate, 100 μM EGTA, 100 μM DTT and 0.05% (w/v) CHAPS. […] Test compounds were dissolved in 100% (v/v) DMSO or a mixture containing 90% (v/v) DMSO and 10% (v/v) H2O at a stock concentration of 100 mM. Serial dilutions of test compounds were prepared using either 100% (v/v) DMSO or a mixture containing 90% (v/v) DMSO and 10% (v/v) H2O.

Human IL2 promoter = Human IL2 promoter reporter gene assay (RGA) in Jurkat cells; type: cell-based; conditions: Jurkat clone K22 290_H23, anti-CD28 mAb + PMA stimulation 5.5 h
Experimental: Human IL2 Promoter Reporter Gene Assay (RGA) in Jurkat Cells
The transfected Jurkat clone K22 290_H23 was propagated in RPMI 1640 supplemented with 10% heat inactivated fetal calf serum, 50 μM 2-mercaptoethanol and 1 mg/ml Geneticin. The cell concentration should not exceed 1×10e6/ml during culturing. The cells should not exceed passage 30. Prior to the assay the cells were washed and prepared to the concentration of 2×10e6 cells/ml.
Compound dilutions were made as 2×-concentrated solutions then diluted 1/2 by addition to cells. Two hundred and fifty μl of compound dilution and 250 μl of cells were mixed together in wells of a 96-deep well plate. Cells/compounds premix were incubated 30 min at 37° C. and 5% CO2 directly in the deep well plate.
After pre-incubation of cells with compounds, cells were stimulated with anti-CD28 mAb (clone 15E8) at 3 μg/ml+PMA at 1 μg/ml. Both co-stimulants were diluted in culture medium at a 10×-concentrated solution. 10 μl of co-stimulants were pipetted into the white 96-well plates and 100 μl of cell/compound mix was immediately added in duplicates. The cells were stimulated for 5.5 h at 37° C. and 5% CO2.
After cell stimulation, 50 μl of BriteLitePlus reagent (Perkin Elmer) was added to each well and the bioluminescence was measured with a Wallac EnVision reader (Perkin Elmer).

cIAP2-MALT1 fusion protein, sequence (Q9UDY8 2-824 limits assumed): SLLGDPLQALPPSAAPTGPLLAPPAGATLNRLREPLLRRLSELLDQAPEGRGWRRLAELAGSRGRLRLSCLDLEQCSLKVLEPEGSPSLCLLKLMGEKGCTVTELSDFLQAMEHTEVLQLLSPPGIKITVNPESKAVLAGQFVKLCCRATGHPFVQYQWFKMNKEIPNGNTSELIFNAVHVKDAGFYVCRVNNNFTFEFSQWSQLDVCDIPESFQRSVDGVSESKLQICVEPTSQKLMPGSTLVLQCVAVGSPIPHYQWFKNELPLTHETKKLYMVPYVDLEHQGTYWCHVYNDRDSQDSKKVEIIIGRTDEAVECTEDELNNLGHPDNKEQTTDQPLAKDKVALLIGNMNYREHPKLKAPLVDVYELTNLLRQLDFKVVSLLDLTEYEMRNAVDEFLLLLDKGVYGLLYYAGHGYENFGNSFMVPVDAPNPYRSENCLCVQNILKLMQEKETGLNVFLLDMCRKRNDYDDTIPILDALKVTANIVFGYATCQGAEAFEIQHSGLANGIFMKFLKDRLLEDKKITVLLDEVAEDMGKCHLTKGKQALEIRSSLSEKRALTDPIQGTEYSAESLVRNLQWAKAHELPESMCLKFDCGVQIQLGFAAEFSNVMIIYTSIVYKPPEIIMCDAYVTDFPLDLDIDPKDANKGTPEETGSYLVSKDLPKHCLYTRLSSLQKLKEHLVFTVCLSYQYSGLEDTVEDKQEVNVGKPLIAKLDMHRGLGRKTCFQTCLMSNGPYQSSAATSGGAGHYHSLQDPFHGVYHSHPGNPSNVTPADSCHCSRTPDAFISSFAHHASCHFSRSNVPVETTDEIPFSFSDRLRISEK
C-domain of MALT1 (amino acids 329-824), sequence (Q9UDY8 329-824): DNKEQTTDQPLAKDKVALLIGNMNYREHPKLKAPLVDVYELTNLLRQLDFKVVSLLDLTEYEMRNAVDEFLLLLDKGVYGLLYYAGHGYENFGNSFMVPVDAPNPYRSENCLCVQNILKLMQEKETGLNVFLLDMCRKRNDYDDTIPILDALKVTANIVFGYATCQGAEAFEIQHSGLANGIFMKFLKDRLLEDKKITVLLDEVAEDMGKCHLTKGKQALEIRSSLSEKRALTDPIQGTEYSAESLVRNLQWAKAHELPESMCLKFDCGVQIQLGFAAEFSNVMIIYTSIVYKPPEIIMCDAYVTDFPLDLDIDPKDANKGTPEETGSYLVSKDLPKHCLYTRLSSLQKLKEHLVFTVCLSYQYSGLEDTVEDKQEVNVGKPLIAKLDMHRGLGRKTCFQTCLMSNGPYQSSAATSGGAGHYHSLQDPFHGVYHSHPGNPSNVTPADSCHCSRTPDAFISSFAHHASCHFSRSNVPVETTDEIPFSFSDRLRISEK

Structure (SMILES) | IC50 [1] [nM] | IC50 [2] [nM] | IC50 (Human IL2 promoter) [nM]
COC(C)(C)c1c(NC(=O)Nc2ccnc(C(F)(F)F)c2)cnc2cc(Cl)nn12 [Example 15, 1-(2-chloro-7-(2-methoxypropan-2-yl)pyrazolo[1,5-a]pyrimidin-6-yl)-3-(2-(trifluoromethyl)pyridin-4-yl)urea] | 110 | 5 | –
COc1cc(NC(=O)Nc2cnc3cc(Cl)nn3c2[C@H](C)OC)cnc1-n1nccn1 [Example 11, (S)-1-(2-chloro-7-(1-methoxyethyl)pyrazolo[1,5-a]pyrimidin-6-yl)-3-(5-methoxy-6-(2H-1,2,3-triazol-2-yl)pyridin-3-yl)urea] | 164 | 19 | –
CN(C)C(=O)c1c(NC(=O)Nc2cnc(-n3nccn3)c(Cl)c2)cnc2cc(Cl)nn12 [Example 70, 2-chloro-6-(3-(5-chloro-6-(2H-1,2,3-triazol-2-yl)pyridin-3-yl)ureido)-N,N-dimethylpyrazolo[1,5-a]pyrimidine-7-carboxamide] | 891 | 123 | –
COCCC(OC)c1c(NC(=O)Nc2cnc(-n3nccn3)c(Cl)c2)cnc2cc(Cl)nn12 (stereo not shown) [Example 64, 1-(5-chloro-6-(2H-1,2,3-triazol-2-yl)pyridin-3-yl)-3-(2-chloro-7-(1,3-dimethoxypropyl)pyrazolo[1,5-a]pyrimidin-6-yl)urea] | 187 | 13 | –
CO[C@@H](c1c(NC(=O)Nc2ccnc(C(F)(F)F)c2)cnc2cc(Cl)nn12)C(C)C [Example 37, (R)-1-(2-chloro-7-(1-methoxy-2-methylpropyl)pyrazolo[1,5-a]pyrimidin-6-yl)-3-(2-(trifluoromethyl)pyridin-4-yl)urea] | 221 | 11 | –
CO[C@@H](C)c1c(NC(=O)Nc2ccnc(Cl)c2)cnc2cc(Cl)nn12 [Example 12, (S)-1-(2-chloro-7-(1-methoxyethyl)pyrazolo[1,5-a]pyrimidin-6-yl)-3-(2-chloropyridin-4-yl)urea] | 71 | 14 | –
CO[C@@H](c1c(NC(=O)Nc2cnc(-n3nccn3)c(Cl)c2)cnc2cc(Cl)nn12)C(C)C [Example 5, (R)-1-(5-chloro-6-(2H-1,2,3-triazol-2-yl)pyridin-3-yl)-3-(2-chloro-7-(1-methoxy-2-methylpropyl)pyrazolo[1,5-a]pyrimidin-6-yl)urea] | 112 | 5 | –
CC(C)(C)c1c(NC(=O)Nc2cnc(-n3nccn3)c(Cl)c2)cnc2cc(Cl)nn12 [Example 34, 1-(7-(tert-butyl)-2-chloropyrazolo[1,5-a]pyrimidin-6-yl)-3-(5-chloro-6-(2H-1,2,3-triazol-2-yl)pyridin-3-yl)urea] | 106 | 4 | –
CC1(c2c(NC(=O)Nc3cnc(-n4nccn4)c(Cl)c3)cnc3cc(Cl)nn23)CCOCC1 [Example 55, 1-(5-chloro-6-(2H-1,2,3-triazol-2-yl)pyridin-3-yl)-3-(2-chloro-7-(4-methyltetrahydro-2H-pyran-4-yl)pyrazolo[1,5-a]pyrimidin-6-yl)urea] | 287 | 5 | –
COCC1(c2c(NC(=O)Nc3cnc(-n4nccn4)c(Cl)c3)cnc3cc(Cl)nn23)CCC1 [Example 50, 1-(5-chloro-6-(2H-1,2,3-triazol-2-yl)pyridin-3-yl)-3-(2-chloro-7-(1-(methoxymethyl)cyclobutyl)pyrazolo[1,5-a]pyrimidin-6-yl)urea] | 230 | 20 | –
CC1(c2c(NC(=O)Nc3ccnc(C(F)(F)F)c3)cnc3cc(Cl)nn23)CC1 [Example 17, 1-(2-chloro-7-(1-methylcyclopropyl)pyrazolo[1,5-a]pyrimidin-6-yl)-3-(2-(trifluoromethyl)pyridin-4-yl)urea] | 117 | 11 | –
CC(C)OCc1c(NC(=O)Nc2cnc(-n3nccn3)c(Cl)c2)cnc2cc(Cl)nn12 [Example 61, 1-(5-chloro-6-(2H-1,2,3-triazol-2-yl)pyridin-3-yl)-3-(2-chloro-7-(isopropoxymethyl)pyraozlo[1,5-a]pyrimidin-6-yl)urea] | 370 | 19 | –
C[C@@H](OCc1ccccc1)c1c(NC(=O)Nc2cnc(-n3nccn3)c(C(F)(F)F)c2)cnc2cc(Cl)nn12 [Example 65, (R)-1-(6-(2H-1,2,3-triazol-2-yl)-5-(trifluoromethyl)pyridin-3-yl)-3-(7-(1-(benzyloxy)ethyl)-2-chloropyrazolo[1,5-a]pyrimidin-6-yl)urea] | 405 | 9 | –
CC(C)(C)OC(=O)N1CCOC(c2c(NC(=O)Nc3cnc(-n4nccn4)c(Cl)c3)cnc3cc(Cl)nn23)C1 (stereo not shown) [Example 66, tert-butyl 2-(2-chloro-6-(3-(5-chloro-6-(2H-1,2,3-triazol-2-yl)pyridin-3-yl)ureido)pyrazolo[1,5-a]pyrimidin-7-yl)morpholine-4-carboxylate] | 241 | – | –
Cc1cc(CO)nn1-c1ccc(NC(=O)Nc2cnc3cc(Cl)nn3c2C(C)C)cc1Cl [Example 28, 1-(3-chloro-4-(3-(hydroxymethyl)-5-methyl-1H-pyrazol-1-yl)phenyl)-3-(2-chloro-7-isopropylpyrazolo[1,5-a]pyrimidin-6-yl)urea] | 215 | – | –
CO[C@@H](C)c1c(NC(=O)Nc2ccnc(C(F)(F)F)c2)cnc2cc(F)nn12 [Example 7, (S)-1-(2-fluoro-7-(1-methoxyethyl)pyrazolo[1,5-a]pyrimidin-6-yl)-3-(2-(trifluoromethyl)pyridin-4-yl)urea] | – | 8 | 30

Further lines, results first:

IC50 [1] [nM] | IC50 [2] [nM] | IC50 (Human IL2 promoter) [nM] | Structure (SMILES)
241 | 6 | – | COCC1(c2c(NC(=O)Nc3ccnc(C(F)(F)F)c3)cnc3cc(Cl)nn23)CC1 [Example 77, 1-(2-chloro-7-(1-(methoxymethyl)cyclopropyl)pyrazolo[1,5-a]pyrimidin-6-yl)-3-(2-(trifluoromethyl)pyridin-4-yl)urea]
– | 3 | 46 | CO[C@@H](C)c1c(NC(=O)Nc2cnc(-n3nccn3)c(C(F)F)c2)cnc2cc(Cl)nn12 [Example 89, (S)-1-(2-chloro-7-(1-methoxyethyl)pyrazolo[1,5-a]pyrimidin-6-yl)-3-(5-(difluoromethyl)-6-(2H-1,2,3-triazol-2-yl)pyridin-3-yl)urea]
– | 9 | 138 | CN1CCOCC1c1c(NC(=O)Nc2cnc(-n3nccn3)c(Cl)c2)cnc2cc(Cl)nn12 (stereo not shown) [Example 125, 1-(5-chloro-6-(2H-1,2,3-triazol-2-yl)pyridin-3-yl)-3-(2-chloro-7-(4-methylmorpholin-3-yl)pyrazolo[1,5-a]pyrimidin-6-yl)urea]
– | 3 | 54 | COC[C@H](C)c1c(NC(=O)Nc2cnc(-n3nccn3)c(C(F)(F)F)c2)cnc2cc(Cl)nn12 [Example 111, (R)-1-(6-(2H-1,2,3-triazol-2-yl)-5-(trifluoromethyl)pyridin-3-yl)-3-(2-chloro-7-(1-methoxypropan-2-yl)pyrazolo[1,5-a]pyrimidin-6-yl)urea]
– | 5 | 50 | C[C@H](OC[C@@H]1CCOC1)c1c(NC(=O)Nc2cnc(-n3nccn3)c(Cl)c2)cnc2cc(Cl)nn12 [Example 103, 1-(5-chloro-6-(2H-1,2,3-triazol-2-yl)pyridin-3-yl)-3-(2-chloro-7-((S)-1-(((R)-tetrahydrofuran-3-yl)methoxy)ethyl)pyrazolo[1,5-a]pyrimidin-6-yl)urea]
157 | – | – | CN[C@@H](C)c1c(NC(=O)Nc2cnc(-n3nccn3)c(Cl)c2)cnc2cc(Cl)nn12 [Example 119, (S)-1-(5-chloro-6-(2H-1,2,3-triazol-2-yl)pyridin-3-yl)-3-(2-chloro-7-(1-(methylamino)ethyl)pyrazolo[1,5-a]pyrimidin-6-yl)urea]
– | 2 | 16 | CO[C@@H](C)c1c(NC(=O)Nc2cnc(-n3nccn3)c(C(F)(F)F)c2)cnc2cc(F)nn12 [Example 94, (S)-1-(6-(2H-1,2,3-triazol-2-yl)-5-(trifluoromethyl)pyridin-3-yl)-3-(2-fluoro-7-(1-methoxyethyl)pyrazolo[1,5-a]pyrimidin-6-yl)urea]
569 | – | – | Cn1ccnc1-c1c(NC(=O)Nc2cnc(-n3nccn3)c(Cl)c2)cnc2cc(Cl)nn12 [Example 86, 1-(5-chloro-6-(2H-1,2,3-triazol-2-yl)pyridin-3-yl)-3-(2-chloro-7-(1-methyl-1H-imidazol-2-yl)pyrazolo[1,5-a]pyrimidin-6-yl)urea]
– | 3 | 68 | COCCO[C@@H](C)c1c(NC(=O)Nc2cnc(OC(F)F)c(Cl)c2)cnc2cc(Cl)nn12 [Example 97, (S)-1-(5-chloro-6-(difluoromethoxy)pyridin-3-yl)-3-(2-chloro-7-(1-(2-methoxyethoxy)ethyl)pyrazolo[1,5-a]pyrimidin-6-yl)urea]
